Measurements: patent US9611267B2, “Substituted tricyclic compounds as FGFR inhibitors” (Incyte Corporation, priority 2012, dated 2017)
pIC50: −log10 of the molar value.

How the values were obtained:
Type in all cases: biochemical
FGFR2 = FGFR2 (Homo sapiens (Human), UniProt P21802); assay: FGFR enzymatic assay (FRET peptide phosphorylation), FGFR2; conditions: FGFR2 enzyme 0.01 nM, ATP 100 μM
In short: (§1)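 Recombinant kinase was pre-incubated 5–10 min with serially diluted inhibitor in HEPES buffer (10 mM MgCl2, 5 mM DTT, pH 7.5; buffer described for FGFR3). Peptide phosphorylation ran 1 h at 25 °C and was detected by FRET after ~1 h equilibration. IC50 values come from variable-slope sigmoidal fits.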

FGFR3 = FGFR3 (Homo sapiens (Human), UniProt P22607); assay: FGFR enzymatic assay (FRET peptide phosphorylation), FGFR3; conditions: FGFR3 enzyme (Millipore), ATP 140 μM
Chain of FGFR3 (P22607 23-806): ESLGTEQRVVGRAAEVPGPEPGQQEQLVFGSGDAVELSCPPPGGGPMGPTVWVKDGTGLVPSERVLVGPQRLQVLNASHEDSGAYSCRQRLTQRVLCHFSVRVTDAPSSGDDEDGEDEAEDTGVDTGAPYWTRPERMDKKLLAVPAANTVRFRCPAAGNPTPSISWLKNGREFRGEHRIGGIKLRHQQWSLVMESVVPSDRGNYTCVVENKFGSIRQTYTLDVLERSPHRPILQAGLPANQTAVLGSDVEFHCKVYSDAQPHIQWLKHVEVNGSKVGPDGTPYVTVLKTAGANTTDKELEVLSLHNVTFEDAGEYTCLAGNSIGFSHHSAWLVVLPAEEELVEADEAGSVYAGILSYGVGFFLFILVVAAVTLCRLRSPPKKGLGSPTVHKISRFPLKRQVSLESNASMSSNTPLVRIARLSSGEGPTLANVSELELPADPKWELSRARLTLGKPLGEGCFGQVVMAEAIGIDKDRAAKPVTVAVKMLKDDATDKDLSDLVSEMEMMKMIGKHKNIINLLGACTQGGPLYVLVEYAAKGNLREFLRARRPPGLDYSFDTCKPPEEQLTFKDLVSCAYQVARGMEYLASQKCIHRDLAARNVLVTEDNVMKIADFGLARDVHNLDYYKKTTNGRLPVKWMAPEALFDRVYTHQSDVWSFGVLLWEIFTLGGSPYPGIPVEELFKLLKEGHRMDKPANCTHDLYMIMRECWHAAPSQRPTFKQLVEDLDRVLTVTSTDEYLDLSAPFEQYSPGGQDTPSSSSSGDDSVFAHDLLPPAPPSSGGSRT
In short: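 FRET assay of peptide phosphorylation by FGFR3 in HEPES pH 7.5 buffer with MgCl2, EGTA, Tween-20 and DTT. Enzyme was pre-incubated 5-10 min with compound, and the reaction ran 1 hr at 25° C. IC50 came from a variable-slope sigmoidal fit.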

FGFR1 = FGFR1 (Homo sapiens (Human), UniProt P11362); assay: FGFR enzymatic assay (FRET peptide phosphorylation), FGFR1; conditions: FGFR1 enzyme 0.02 nM, ATP 210 μM
Chain of FGFR1 (P11362 22-822): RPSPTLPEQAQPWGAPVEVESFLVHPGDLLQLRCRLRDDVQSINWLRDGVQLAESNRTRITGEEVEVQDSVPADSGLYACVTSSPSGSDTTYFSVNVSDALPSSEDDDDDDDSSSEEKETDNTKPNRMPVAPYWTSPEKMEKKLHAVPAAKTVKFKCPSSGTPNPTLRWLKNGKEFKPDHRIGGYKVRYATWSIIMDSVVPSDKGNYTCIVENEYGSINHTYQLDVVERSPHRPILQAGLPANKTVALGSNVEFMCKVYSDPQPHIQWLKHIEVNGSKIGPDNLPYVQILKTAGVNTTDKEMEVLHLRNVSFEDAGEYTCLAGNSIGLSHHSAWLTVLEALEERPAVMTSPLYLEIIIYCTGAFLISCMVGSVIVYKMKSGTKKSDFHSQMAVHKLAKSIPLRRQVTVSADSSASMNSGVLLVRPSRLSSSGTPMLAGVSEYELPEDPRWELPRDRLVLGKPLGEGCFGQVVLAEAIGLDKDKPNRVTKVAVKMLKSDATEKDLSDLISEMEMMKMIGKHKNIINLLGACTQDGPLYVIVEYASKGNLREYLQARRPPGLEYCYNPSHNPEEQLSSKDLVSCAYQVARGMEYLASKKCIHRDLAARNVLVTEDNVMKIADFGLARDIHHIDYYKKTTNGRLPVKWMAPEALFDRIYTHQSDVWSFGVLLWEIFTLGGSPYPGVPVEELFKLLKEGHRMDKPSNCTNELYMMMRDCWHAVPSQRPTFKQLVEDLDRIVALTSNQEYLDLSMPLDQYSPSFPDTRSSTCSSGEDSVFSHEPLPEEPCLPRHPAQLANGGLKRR
In short: as §1

Chain of FGFR2 (P21802 22-821): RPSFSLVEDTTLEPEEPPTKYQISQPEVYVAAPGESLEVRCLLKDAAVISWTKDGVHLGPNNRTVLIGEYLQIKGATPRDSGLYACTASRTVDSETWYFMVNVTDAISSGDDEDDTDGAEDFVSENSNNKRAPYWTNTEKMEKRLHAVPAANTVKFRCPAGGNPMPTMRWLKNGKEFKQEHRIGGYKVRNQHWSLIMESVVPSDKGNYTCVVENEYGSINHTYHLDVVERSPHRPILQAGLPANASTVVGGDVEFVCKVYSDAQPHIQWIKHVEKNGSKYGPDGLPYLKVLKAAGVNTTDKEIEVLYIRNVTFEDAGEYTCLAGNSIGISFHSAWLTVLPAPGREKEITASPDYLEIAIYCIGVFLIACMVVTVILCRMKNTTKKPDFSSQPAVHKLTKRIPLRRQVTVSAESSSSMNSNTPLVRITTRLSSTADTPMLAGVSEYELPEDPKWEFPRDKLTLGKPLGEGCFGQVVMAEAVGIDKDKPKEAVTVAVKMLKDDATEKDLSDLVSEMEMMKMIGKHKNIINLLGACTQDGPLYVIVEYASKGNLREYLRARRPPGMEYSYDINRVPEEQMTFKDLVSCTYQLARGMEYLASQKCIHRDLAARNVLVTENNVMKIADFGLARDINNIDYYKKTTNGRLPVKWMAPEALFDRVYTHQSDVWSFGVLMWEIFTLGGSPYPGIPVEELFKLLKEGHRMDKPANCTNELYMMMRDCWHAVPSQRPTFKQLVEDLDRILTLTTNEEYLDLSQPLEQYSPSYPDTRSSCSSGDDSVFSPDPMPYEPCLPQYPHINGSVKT

Compound	pIC50 (FGFR2)	pIC50 (FGFR3)	pIC50 (FGFR1)
CCN1CCN(CCc2cc3c4c(cnc3[nH]2)CN(c2c(F)c(OC)cc(OC)c2F)C(=O)N4c2cccc(F)c2F)CC1 [Example 224, 3-(2,6-difluoro-3,5-dimethoxyphenyl)-1-(2,3-difluorophenyl)-8-[2-(4-ethylpiperazin-1-yl)ethyl]-1,3,4,7-tetrahydro-2H-pyrrolo[3′,2′:5,6]pyrido[4,3-d]pyrimidin-2-one]	> 7.00	> 7.00	> 7.00
COc1cc(OC)c(F)c(N2Cc3cnc4[nH]c(CCN5CCN(C)CC5)cc4c3N(c3cccc(F)c3F)C2=O)c1F [Example 223, 3-(2,6-difluoro-3,5-dimethoxyphenyl)-1-(2,3-difluorophenyl)-8-[2-(4-methylpiperazin-1-yl)ethyl]-1,3,4,7-tetrahydro-2H-pyrrolo[3′,2′:5,6]pyrido[4,3-d]pyrimidin-2-one]	> 7.00	> 7.00	> 7.00
COc1cc(OC)c(F)c(N2Cc3cnc4[nH]nc(C5CCN(C)CC5)c4c3N(C)C2=O)c1F [Example 55, 3-(2,6-Difluoro-3,5-dimethoxyphenyl)-1-methyl-9-(1-methylpiperidin-4-yl)-1,3,4,7-tetrahydro-2H-pyrazolo[4′,3′:5,6]pyrido[4,3-d]pyrimidin-2-one]	> 7.00	> 7.00	> 7.00
COc1cc(OC)c(F)c(N2Cc3cnc4[nH]c(CN5CCN(C)CC5)cc4c3N(c3cnn(C)c3)C2=O)c1F [Example 204, 3-(2,6-difluoro-3,5-dimethoxyphenyl)-8-[(4-methylpiperazin-1-yl)methyl]-1-(1-methyl-1H-pyrazol-4-yl)-1,3,4,7-tetrahydro-2H-pyrrolo[3′,2′:5,6]pyrido[4,3-d]pyrimidin-2-one]	> 7.00	> 7.00	> 7.00
COc1cc(OC)c(F)c(N2Cc3cnc4[nH]ncc4c3N(Cc3cccc(C)n3)C2=O)c1F [Example 217, 3-(2,6-difluoro-3,5-dimethoxyphenyl)-1-[(6-methylpyridin-2-yl)methyl]-1,3,4,7-tetrahydro-2H-pyrazolo[4′,3′:5,6]pyrido[4,3-d]pyrimidin-2-one]	> 7.00	> 7.00	> 7.00
CCN1C(=O)N(c2c(F)c(OC)cc(OC)c2F)Cc2cnc3[nH]nc(C)c3c21 [Example 98, 3-(2,6-difluoro-3,5-dimethoxyphenyl)-1-ethyl-9-methyl-1,3,4,7-tetrahydro-2H-pyrazolo[4′,3′:5,6]pyrido[4,3-d]pyrimidin-2-one]	> 7.00	> 7.00	> 7.00
COc1cc(OC)c(F)c(N2Cc3cnc4[nH]ncc4c3N(CCn3cccn3)C2=O)c1F [Example 165, 3-(2,6-Difluoro-3,5-dimethoxyphenyl)-1-[2-(1H-pyrazol-1-yl)ethyl]-1,3,4,7-tetrahydro-2H-pyrazolo[4′,3′:5,6]pyrido[4,3-d]pyrimidin-2-one]	> 7.00	> 7.00	> 7.00
CCN1CCN(Cc2cc3c4c(cnc3[nH]2)CN(c2c(F)c(OC)cc(OC)c2F)C(=O)N4c2cccc(F)c2F)CC1 [Example 193, 3-(2,6-difluoro-3,5-dimethoxyphenyl)-1-(2,3-difluorophenyl)-8-[(4-ethylpiperazin-1-yl)methyl]-1,3,4,7-tetrahydro-2H-pyrrolo[3′,2′:5,6]pyrido[4,3-d]pyrimidin-2-one]	> 7.00	> 7.00	> 7.00
CCN1C(=O)N(c2c(F)c(OC)cc(OC)c2F)Cc2cnc3[nH]ncc3c21 [Example 57, 3-(2,6-Difluoro-3,5-dimethoxyphenyl)-1-ethyl-1,3,4,7-tetrahydro-2H-pyrazolo[4′,3′:5,6]pyrido[4,3-d]pyrimidin-2-one]	> 7.00	> 7.00	> 7.00
CCN1C(=O)N(c2c(F)c(OC)cc(OC)c2Cl)Cc2cnc3[nH]c(CN4CCOCC4)cc3c21 [Example 141, 3-(2-chloro-6-fluoro-3,5-dimethoxyphenyl)-1-ethyl-8-(morpholin-4-ylmethyl)-1,3,4,7-tetrahydro-2H-pyrrolo[3′,2′:5,6]pyrido[4,3-d]pyrimidin-2-one]	> 7.00	> 7.00	> 7.00
COc1cc(OC)c(F)c(N2Cc3cnc4[nH]c(C(=O)N5CCC(F)(F)CC5)cc4c3N(C)C2=O)c1F [Example 42, 3-(2,6-Difluoro-3,5-dimethoxyphenyl)-8-[(4,4-difluoropiperidin-1-yl)carbonyl]-1-methyl-1,3,4,7-tetrahydro-2H-pyrrolo[3′,2′:5,6]pyrido[4,3-d]pyrimidin-2-one]	> 7.00	> 7.00	> 7.00

Now from value to compound:

pIC50 (FGFR2)	pIC50 (FGFR3)	pIC50 (FGFR1)	Compound
> 7.00	> 7.00	> 7.00	COc1cc(OC)c(F)c(N2Cc3cnc4[nH]c(CCCN5CCOCC5)cc4c3N(C)C2=O)c1F [Example 117, 3-(2,6-difluoro-3,5-dimethoxyphenyl)-1-methyl-8-(3-morpholin-4-ylpropyl)-1,3,4,7-tetrahydro-2H-pyrrolo[3′,2′:5,6]pyrido[4,3-d]pyrimidin-2-one]
> 7.00	> 7.00	> 7.00	COc1cc(OC)c(Cl)c(N2Cc3cnc4[nH]c(C(=O)N5CCN(C)CC5)cc4c3N(C)C2=O)c1 [Example 26, 3-(2-Chloro-3,5-dimethoxyphenyl)-1-methyl-8-[(4-methylpiperazin-1-yl)carbonyl]-1,3,4,7-tetrahydro-2H-pyrrolo[3′,2′:5,6]pyrido[4,3-d]pyrimidin-2-one]
> 7.00	> 7.00	> 7.00	CCN1CCN(Cc2cc3c4c(cnc3[nH]2)CN(c2c(F)c(OC)cc(OC)c2F)C(=O)N4c2ccc(F)cc2)CC1 [Example 191, 3-(2,6-difluoro-3,5-dimethoxyphenyl)-1-(4-fluorophenyl)-8-[(4-ethylpiperazin-1-yl)methyl]-1,3,4,7-tetrahydro-2H-pyrrolo[3′,2′:5,6]pyrido[4,3-d]pyrimidin-2-one]
> 7.00	> 7.00	> 7.00	COc1cc(OC)c(F)c(N2Cc3cnc4[nH]c(CN5CCOCC5)cc4c3N(C3CC3)C2=O)c1F [Example 186, 1-cyclopropyl-3-(2,6-difluoro-3,5-dimethoxyphenyl)-8-(morpholin-4-ylmethyl)-1,3,4,7-tetrahydro-2H-pyrrolo[3′,2′:5,6]pyrido[4,3-d]pyrimidin-2-one]
> 7.00	> 7.00	> 7.00	CCN1C(=O)N(c2c(F)c(OC)cc(OC)c2F)Cc2cnc3[nH]c(COc4cccnc4)cc3c21 [Example 220, 3-(2,6-difluoro-3,5-dimethoxyphenyl)-1-ethyl-8-[(pyridin-3-yloxy)methyl]-1,3,4,7-tetrahydro-2H-pyrrolo[3′,2′:5,6]pyrido[4,3-d]pyrimidin-2-one]
> 7.00	> 7.00	> 7.00	COc1cc(OC)c(Cl)c(N2Cc3cnc4c(c3N(c3cccc(F)c3F)C2=O)CC(=O)N4)c1F [Example 124, 3-(2-chloro-6-fluoro-3,5-dimethoxyphenyl)-1-(2,3-difluorophenyl)-3,4,7,9-tetrahydro-1H-pyrrolo[3′,2′:5,6]pyrido[4,3-d]pyrimidine-2,8-dione]
> 7.00	> 7.00	> 7.00	COc1cc(OC)c(F)c(N2Cc3cnc4[nH]nc(CCN5CCOCC5)c4c3N(C)C2=O)c1F [Example 100, 3-(2,6-difluoro-3,5-dimethoxyphenyl)-1-methyl-9-(2-morpholin-4-ylethyl)-1,3,4,7-tetrahydro-2H-pyrazolo[4′,3′:5,6]pyrido[4,3-d]pyrimidin-2-one]
